Series [1] has as its system M. persicae. Kind of series: Feeding of aphids with peptides in artificial diet (Example 2; peptide screening, honeydew). Type of series: in vivo, Myzus persicae. The following applies: for mean lethality / lethality observed in one sample of 30 insects: M. persicae feeding, 10^−5 M, 120 hours; for lethality observed in one sample of 30 insects: single sample. From the text: (§1) First to Fourth generations of peptides were produced with varying structures and tested for CAPA receptor agonist activity, and screened for lethality in vivo against D. suzukii and M. persicae as per methods in example 2 and example 8. The top performing peptides were selected and gave rise to the list of CAPA1 and CAPA2 peptides provided above in Table 1 which were then further tested in the following applied examples.
The aphid feeding protocol was devised according to Sadeghi et al (2009) as explained in example 1. Feeding discs were designed and manufactured as above. A standard sucrose-based artificial diet for M. persicae (30 aphids per chamber, 3 chambers per experiment unless otherwise stated) was produced as described in example 1 (Sadeghi et al, J. Insect Science, 2009) and provided the basal diet to which peptides were added for screening purposes. Peptides were diluted individually in the artificial diet to 10^−5 M. Lethality was scored after up to 120 hours (IRAC guidelines for aphid testing).
Membrane discs were also included to collect ‘honeydew’ secreted by feeding aphids and stained with ninhydrin to observe feeding patterns.
Comparison of purple stain in controls to treated aphids, show there is very little colour on many membranes where peptides were added.
Capa peptides cause mortality in M. persicae via feeding: At 120 hours, AH383 and AH387 peptides induce ˜60% mean (and median) lethality. Although mean lethality is lower with AH270/PEGAH270 (40%), 100% lethality is observed in one sample of 30 insects (AH270); and 90% in at least one sample of each of AH383, AH387 and PEGAH270 (FIG. 3). Note that PEGAH270 is a pegylated form of peptide AH270.

Series [2] deals with Drosophila suzukii larvae. As to the kind of experiment: Drosophila suzukii larval feeding (Example 8; peptide screening). The following applies: for Feeding D. suzukii, % lethality in population after adjustment for baseline: 10^−5 M, 48 hr exposure. The class given is in vivo. Also on record: key to D. suzukii (Sig Diff Grp): A indicates a significant difference in survival compared with control (blank).; B indicates a significant difference in survival compared with scrambled capa1.; C indicates a significant difference in survival compared with scrambled capa2. The method, then: as §1
Peptides were tested at concentrations ranging from [10^−4 M] to [10^−7 M] in a final volume of 200 μl of 0.8% agarose containing 0.09% m-Cresol purple pH marker dye (Sigma) and 5% sucrose (Sigma).
Agarose was melted in dH2O, before addition of sucrose and dye. The agarose/dye solution was then allowed to cool to 60° C. 96 well plates (flat-bottomed 3596 TC-plates; Corning) containing 20 μl volumes of neuropeptide per well were prepared, and 180 μl agarose/dye solution dispensed into each well via a Distriman repetitive micro-pipettor (Gilson). Controls contained 20 μl dH2O as a ‘sham’ treatment with 180 μl of the 0.8% agarose/dye solution. Plates were agitated at 800 rpm, to ensure mixing, at 60° C. (Eppendorf Thermomixer C). Plates were then allowed to cool, and agarose/dye solution solidify, prior to use.
Each peptide was assayed with a minimum of 7 to maximum 9 late L2/early L3 Spotted wing Drosophila, Drosophila suzukii, (feeding) larvae per well, minimum n=8 wells per peptide concentration and a minimum n=12 control wells per plate. The selected larvae were first washed 2× in ice cold Drosophila Schneider's liquid medium (ThermoFisher) before insertion into wells to remove extraneous food. After complete insertion of all larvae the plates were covered with breathable sealing membrane for multi-well plates (Sigma).
Larvae were assayed for lethality after 48 hr exposure at 21° C. and findings recorded. During examination the assay plate was kept on ice, to reduce larval locomotor activity (wandering), and larvae in each well were examined using a binocular stereomicroscope (Zeiss).
The water control group was used to determine baseline lethality. Results for neuropeptide analogues were calculated as % lethality in the remaining population after adjustment for the baseline. Results are shown in Tables 7 and 8 below, and in FIG. 1.

Series [3] has as its system M. persicae. Kind of series: Feeding of aphids with peptides in artificial diet (Example 1). The class given is in vivo, Myzus persicae. The procedure:
A standard artificial diet for M. persicae was produced as described in Van Emden (2009) and provided the basal diet to which peptides were added for screening purposes. Peptides were diluted individually in the artificial diet to a pre-determined concentration.
Feeding apparatus were constructed using a set-up developed by Sadeghi et al (2009). For this, a piece of Parafilm was stretched over a Plexiglas ring (h=4 cm, Ø=3 cm) and 100 μl of the artificial diet containing the desired neuropeptide analogue was pipette onto the Parafilm membrane. A second piece of Parafilm, stretched to 4 times the original thickness, was stretched over the original layer, sandwiching the artificial diet between two layers of Parafilm. A strip of Parafilm was wrapped around the circumference of the Plexiglas ring, sealing in the diet. A plastic ring (h=1.2 cm, Ø=3.4 cm) was subsequently placed over the Parafilm layer, creating a walled chamber in which to house test aphids in contact with the Parafilm layer containing the artificial diet. Finally, a small Petri dish (h=1 cm, Ø=3.6 cm), modified for ventilation with net cloth, was placed on top of each feeding apparatus to prevent aphid escape.
To obtain aphids for use in experiments, reproducing anholocyclic adults were placed on individual excised leaves of Chinese cabbage at densities of 5 adults per leaf and allowed to reproduce for 24 h. The stem of each excised leaf was held within a 0.5 mL Eppendorf tube containing water via a punctured hole in the Eppendorf lid, and placed individually within a microcage (L=4 cm, Ø=9.5 cm). Following 24h, adults were removed and resultant first instar nymphs (<1 day old and synchronised in age to within 24h) retained. Nymphs were allowed to develop on the Chinese cabbage for 5 days. On day 5, (3rd instar) nymphs were transferred onto the artificial diet containing a neuropeptide analogue at densities of 1 per feeding chamber and monitored daily until death. Aphids were transferred to fresh artificial diet (containing neuropeptide analogue or water control) every 5 days.
The water control group was used to determine baseline lethality. Results for neuropeptide analogues were calculated as % lethality in the remaining population after adjustment for the baseline.

The test system of the next series is Myzus persicae aphids. Kind of series: Topical application by spraying, Potter Spray Tower (Example 3). Type of series: in vivo. The following applies: 48 hours post spray. The procedure:
Aphids were exposed to test peptides in the absence of additional external stress conditions.
Brassica rapa (Chinese cabbage; Wong Bok) were infested with 30 adult Myzus persicae aphids per plant. Aphids were left at least 2 hours to settle and begin feeding from the host plant.
Potter Spray Tower (Burkard Manufacturing) was ‘primed’ by spraying 1000 μl of liquid coating the inside of the tower. Vehicle spray only (Croda ATPlus UEP 100 LQ-(CQ) 0.1% v/v) was used as a control.
Spray volumes for all solutions were 3000 μl. […] After spraying was completed the plant was allowed to rest on the spray platform for 30 seconds to allow settling of the sprayed chemical.
Post peptide application, each condition was placed into its own individual Bugdorm (Watkins and Doncaster, 44545), to prevent repulsed or displaced aphids moving from one condition to another. Numbers of alive and dead aphids on the plant were counted 48 hours post spray, and the presence of any fresh nymphs noted. Plants were watered prior to spraying but not afterwards to eliminate the possibility of drowning any aphids present or washing off the sprayed liquid.
The vehicle control group was used to determine baseline lethality. Results for neuropeptide analogues were calculated as % lethality in the remaining population after adjustment for the baseline.

Series [4] deals with bumblebees (Bombus terrestris). As to the kind of experiment: Bumblebee acute oral toxicity test. The class given is in vivo. The method, then: Oral toxicity against bumblebees (Bombus terrestris) was determined as previously described:
OECD (2017), Test No. 247: Bumblebee, Acute Oral Toxicity Test, OECD Guidelines for the Testing of Chemicals, Section 2, OECD Publishing, Paris, https://doi.org/10.1787/9789264284128-en.
Example data are provided for peptides, AH56, AH257, AH259 in Tables 4, 5 below. […]
Data were acquired for: feeding behaviour—weight of liquid consumed pre- and post-treatment; lethality (days).
There was no negative impact on feeding behaviour from capa peptides. Acute bumblebee toxicity was also assessed for other peptide candidates including: AH270, PEG270. Overall, capa peptides are bee safe.

A further series has as its system D. suzukii larvae. As to the kind of experiment: Drosophila suzukii larval feeding (Example 9; dose response). Type of series: in vivo. The settings on record: for % Lethality ± SEM: Table 6, 10^−5 M, 48 hr and/or 72 h exposure (FIG. 7: AH270/PEGAH270 120 h). The method, then: Dose response experiments were carried out for AH382, AH383, AH188, data shown for AH382 (a), AH383 (b), AH188 (c, 48 hours). Data are mean % lethality ±SEM for concentrations between 10^−4 M and 10^−7 M (a) AH382, (b) AH383 72 hours treatment; and between 10^−5 M and 10^−9 M (AH188, 3c), 48 hours treatment. The LD50 for AH382, AH383 and AH188 is 10^−6 M.
Further larval feeding assays with D. suzukii larvae were conducted as explained above in example 7. A total of 88 peptides were tested against D. suzukii larvae in 96 well plates at 10^−5 M in a final volume of 200 μl of 0.8% agarose containing 0.09% m-Cresol purple pH marker dye (Sigma) and 5% sucrose (Sigma). Controls contained dH2O (18% lethality) or native Capa-2 peptide (38% lethality) as a ‘sham’ treatment. Each peptide was assayed with a minimum of 7 to maximum 9 late L2/early L3 larvae per well, minimum n=8 wells per peptide concentration (minimum 56 larvae) and a minimum n=12 control wells (minimum 84 larvae) per plate. Larvae were assayed for lethality after 48 hr and/or 72 h exposure at 21° C. using a binocular stereomicroscope and findings recorded. Candidate peptides were also tested between 10^-4 and 10^-7 M (dose response curve).
Candidate peptides for D. suzukii with 70%-90% lethality are indicated below, in Table 6.

Setting [5] is: Table 11, individual bees, peptide 1 × 10 − 5M or Spirotetramat 25 uM, listed as AHPEG270.

Where “and” joins values, the source holds several entries; their conditions need not be identical. Equal values may be shown once. Square brackets hold non-standard residues; d marks the D form. NMeA = CN[C@@H](C)C(=O)O; Aib = CC(C)(N)C(=O)O

With H-Ahx-L-(Me)V-AFPRV-NH2 [AH283], in the series with M. persicae [1] (Peptide screening, Table 5), the “M. persicae (% Lethality)” value was 40%. Further, in series [2], the “Feeding D. suzukii, % lethality in population after adjustment for baseline” value (“Feeding D. suzukii, % lethality” below) turned out to be 43%. Further, in series [2] (Peptide screening, Table 5, blank control 20.33), the “D. suzukii (Mean% Lethality ± SD)” value was 42.63%. In addition, the “D. suzukii (Sig Diff Grp)” value in series [2] (Peptide screening, Table 5, difference in survival) was “A”. The “Feeding Aphid, % lethality in population after adjustment for baseline” value (shortened to “Feeding Aphid, % lethality in population”) in the series with M. persicae [3] (10^−4 M) is recorded as 34%; in the series with M. persicae [3] (10^−5 M), 26%; in the series on M. persicae [3] (10^−5 M, @72 h), 12 (51%; in the series on M. persicae [3] (10^−6 M) it was 27%; in the series with M. persicae [3] (10^−7 M), 20%. Besides, the figures for the “Spray Aphid, % lethality in population after adjustment for baseline” value (from here on “Spray Aphid, % lethality in population”) in the series with Myzus persicae aphids (10^−4 M) and in the series on Myzus persicae aphids (10^−5 M) were 30% and 20%, respectively.
With “PEG-Ahx-LV-(Me)A-FPR-(Me)V-NH2 [PEGAH270, a pegylated form of peptide AH270]”, in series [4] (Table 11, group mean, n=10), the “Liquid post exposure (weight), Mean” value is on record as 0.8814 g and the “liquid consumed per day post exposure, Mean” value came out at 0.2211 g. For the same substance, in series [4] (setting [5]), the “Liquid post exposure (weight)” value is 1.5744 g and 0.7150 g and 0.4326 g and 0.2731 g and 1.1763 g and 1.8061 g and 0.5676 g and 1.5696 g and 0.6889 g and 0.0102 g; the days alive was 4 days (9×) and 0 (approx 1 hr) days; the “liquid consumed per day post exposure” value was 0.3936 g and 0.1788 g and 0.1082 g and 0.0683 g and 0.2941 g and 0.4515 g and 0.1419 g and 0.3924 g and 0.1722 g and 0.0102 g. Also, the “safety towards B. terrestris in the bumblebee oral toxicity assay” value in series [4] (in vivo, po) is recorded as “safe”. Moreover, in the series on M. persicae [1], the mean lethality is 40% and the “lethality observed in one sample of 30 insects” value was found to be 90%. The “% Lethality ± SEM” value in the series on D. suzukii larvae stood at 77 ± 4%.
Regarding “H-LY-Aib-FARV-NH2 (H-LY[Aib]FARV-NH2; SMILES CC(C)C[C@H](N)C(=O)N[C@@H](Cc1ccc(O)cc1)C(=O)NC(C)(C)C(=O)N[C@@H](Cc1ccccc1)C(=O)N[C@@H](C)C(=O)N[C@@H](CCCNC(=N)N)C(=O)N[C@H](C(N)=O)C(C)C) [AH387]”, the mean lethality in the series on M. persicae [1] was around 60%. In the series with M. persicae [1], the “lethality observed in one sample of 30 insects” value came out at 90%. Also, the “Feeding D. suzukii, % lethality” value in series [2] is reported as 62%. In addition, the “Feeding Aphid, % lethality in population” value is reported as 14% with M. persicae [3] (10^−5 M) and 6 (35% in the series on M. persicae [3] (10^−5 M, 60 h). Also, the “Spray Aphid, % lethality in population” value in the series with Myzus persicae aphids (10^−5 M) worked out at 12%.
In the series on D. suzukii larvae (control ('sham') treatment, not baseline adjusted), “H-ASGLVAFPRV-NH2 [Capa-2, reference compound]” returned a lethality of 38%.
As for “H-LY-(Me)A-FARV-NH2 (H-LY[NMeA]FARV-NH2; SMILES CC(C)C[C@H](N)C(=O)N[C@@H](Cc1ccc(O)cc1)C(=O)N(C)[C@@H](C)C(=O)N[C@@H](Cc1ccccc1)C(=O)N[C@@H](C)C(=O)N[C@@H](CCCNC(=N)N)C(=O)N[C@H](C(N)=O)C(C)C) [AH382]”, the “Feeding D. suzukii, % lethality” value in series [2] stood at 43%. In the series with D. suzukii larvae (72 hours treatment), the LD50 is listed as 10^−6 M. Further, the “% Lethality ± SEM” value in the series on D. suzukii larvae is 90 + 4%. Also, the “Feeding Aphid, % lethality in population” value in the series with M. persicae [3] (10^−5 M) is on record as 12%. Further, the figures for the “Spray Aphid, % lethality in population” value in the series on Myzus persicae aphids (10^−4 M) and in the series with Myzus persicae aphids (10^−5 M) were 49% and 10%, respectively.

The values above are taken from patent publication US20240373849A1, “INSECT NEUROPEPTIDE ANALOGUES” (THE UNIVERSITY COURT OF THE UNIVERSITY OF GLASGOW, priority 2020, published 2024).
